Laboratory results taken from US8710089B2, “Triazole derivatives as ghrelin analogue ligands of growth hormone secretagogue receptors” (Zentaris GmbH, priority 2005, dated 2014).

Target: T1, human GHS-R 1a (Homo sapiens, UniProt Q92847)
T1 construct: expressed in transfected cells; host or cells: LLC PK-1 porcine renal epithelial cells (ECACC No. 86121112), isolated plasma membranes
Assay: GHS-R 1a receptor-ligand binding assay (membrane preparations from transfected LLC PK-1 cells)
Details: displacement of 125I-His9-ghrelin (60 pM); membranes of LLC PK-1 cells transfected with human GHS-R 1a; mean of at least two independent experiments in triplicates
Method: (J. Med. […] Med. Chem. 2003, 46: 1191-1203), were incubated in homogenization buffer HB [50 mM Tris (pH 7.3), 5 mM MgCl2, 2.5 mM EDTA, and 30 μg/mL bacitracin (Sigma)] for 60 min at 25° C. (steady-state conditions) with 60 pM ^125I-[…]-ghrelin (Amersham) in the presence or absence of competing compounds (compounds of the invention). […] Nonspecific binding was defined using an excess (10^-6 M) of ghrelin. The binding reaction was stopped by addition of 4 mL of ice-cold HB followed by rapid filtration over Whatman GP/C filters presoaked with 0.5% polyethyleneimine to prevent excessive binding of radioligand to the filters. […] IC50 values given are the mean of at least two independent experiments performed in triplicates.

T1 sequence (Q92847 whole entry): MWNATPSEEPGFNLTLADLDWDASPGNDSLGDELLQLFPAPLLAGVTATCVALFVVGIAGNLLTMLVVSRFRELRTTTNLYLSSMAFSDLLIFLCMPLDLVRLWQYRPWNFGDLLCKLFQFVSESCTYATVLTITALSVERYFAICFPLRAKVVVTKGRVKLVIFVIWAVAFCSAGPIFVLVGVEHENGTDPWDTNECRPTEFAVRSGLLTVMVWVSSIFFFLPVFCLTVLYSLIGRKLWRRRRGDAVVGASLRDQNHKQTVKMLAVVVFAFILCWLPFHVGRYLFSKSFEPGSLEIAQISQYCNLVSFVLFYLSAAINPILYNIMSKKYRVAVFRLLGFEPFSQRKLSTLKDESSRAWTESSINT

Row | SMILES | IC50
1 | CCc1ccc(Cn2c(CCc3ccccc3)nnc2[C@@H](Cc2c[nH]c3ccccc23)NC(=O)C2CNCCN2)cc1 (mixture of isomers) [compound 84] | 247 nM
2 | COC(=O)CCn1nnnc1[C@@H](Cc1c[nH]c2ccccc12)NC(=O)C(C)(C)N [Example 3 from WO 00/54729 A2, (R)—N-(1-(1-methylpropanoate-tetrazol-5-yl)-2-(1H-indol-3-yl)ethyl)-2-amino-2-methylpropanamide, reference compound] | ~3000 nM
3 | CC(C)(N)C(=O)N[C@H](Cc1c[nH]c2ccccc12)c1nnc(CCCc2c[nH]c3ccccc23)n1CCc1ccccc1 [compound 3, (R)—N-(1-(5-(3-(1H-indol-3-yl)propyl)-4-phenethyl-4H-1,2,4-triazol-3-yl)-2-(1H-indol-3-yl)ethyl)-2-amino-2-methylpropanamide] | 14 nM
4 | CC(C)(N)C(=O)N[C@H](Cc1c[nH]c2ccccc12)c1nnc(Cc2ccccc2)n1Cc1cccc2ccccc12 [compound 4, (R)—N-(1-(5-benzyl-4-(naphthalen-1-ylmethyl)-4H-1,2,4-triazol-3-yl)-2-(1H-indol-3-yl)ethyl)-2-amino-2-methylpropanamide] | 220 nM
5 | CC(C)(N)C(=O)N[C@H](Cc1c[nH]c2ccccc12)c1nnc(CCc2c[nH]c3ccccc23)n1Cc1cccc2ccccc12 [compound 5, (R)—N-(1-(5-(2-(1H-indol-3-yl)ethyl)-4-(naphthalen-1-ylmethyl)-4H-1,2,4-triazol-3-yl)-2-(1H-indol-3-yl)ethyl)-2-amino-2-methylpropanamide] | 125 nM

More lines, in order of falling IC50, values ahead:

Row | IC50 | SMILES
6 | ~25000 nM | CC(C)(N)C(=O)N[C@H](COCc1ccccc1)c1nnnn1Cc1ccccc1 [Example from page 175, WO 00/54729 A2, (S)—N-(1-(1-benzyl-tetrazol-5-yl)-2-(benzyloxy)ethyl)-2-amino-2-methylpropanamide, reference compound]
7 | ~20000 nM | CC(C)(C)Sc1nnc([C@@H](COCc2ccccc2)NC(=O)C(C)(C)N)n1Cc1ccccc1 [Example 8 from WO 00/54729 A2, (S)—N-(1-(4-benzyl-5-(tert-butylthio)-1,2,4-triazol-3-yl)-2-(benzyloxy)ethyl)-2-amino-2-methylpropanamide, reference compound]
8 | ~5000 nM | CC(C)(C)Sc1nnc([C@@H](Cc2c[nH]c3ccccc23)NC(=O)C(C)(C)N)n1Cc1ccco1 [Example 39 from WO 00/54729 A2, (R)—N-(1-(5-(tert-butylthio)-4-(furan-2-ylmethyl)-4H-1,2,4-triazol-3-yl)-2-(1H-indol-3-yl)ethyl)-2-amino-2-methylpropanamide, reference compound]
9 | 120 nM | COc1cccc(Cn2c(Cc3ccccc3)nnc2[C@@H](Cc2c[nH]c3ccccc23)NC(=O)C(C)(C)N)c1 [compound 7, (R)—N-(1-(4-(3-methoxybenzyl)-5-benzyl-4H-1,2,4-triazol-3-yl)-2-(1H-indol-3-yl)ethyl)-2-amino-2-methylpropanamide]
10 | 81 nM | CC(C)(N)C(=O)N[C@H](Cc1c[nH]c2ccccc12)c1nnc(CCc2c[nH]c3ccccc23)n1CCc1ccccc1 [compound 2, (R)—N-(1-(5-(2-(1H-indol-3-yl)ethyl)-4-phenethyl-4H-1,2,4-triazol-3-yl)-2-(1H-indol-3-yl)ethyl)-2-amino-2-methylpropanamide]
11 | 18 nM | COc1cccc(Cn2c(CCc3c[nH]c4ccccc34)nnc2[C@@H](Cc2c[nH]c3ccccc23)NC(=O)C(C)(C)N)c1 [compound 6, (R)—N-(1-(5-(2-(1H-indol-3-yl)ethyl)-4-(3-methoxybenzyl)-4H-1,2,4-triazol-3-yl)-2-(1H-indol-3-yl)ethyl)-2-amino-2-methylpropanamide]
12 | 11 nM | O=C(N[C@H](Cc1c[nH]c2ccccc12)c1nnc(CCc2c[nH]c3ccccc23)n1Cc1ccccc1)C1CCCNC1 (mixture of isomers) [compound 55, (R)—N-(1-(5-(2-(1H-indol-3-yl)ethyl)-4-benzyl-4H-1,2,4-triazol-3-yl)-2-(1H-indol-3-yl)ethyl)piperidine-3-carboxamide]
